Experimental data: US20030008024A1, “Therapeutic composition of herbal extracts and the uses thereof” (Advanced Herbal Therapeutics, Inc., priority 2001, published 2003)

What was measured:
[1] = system: paw swelling induced by carrageenin; experiment: Paw swelling induced by carrageenin in rat; assay type: in vivo, SD rats; details: 0.25 g/kg p.o. 3 days
Protocol: A total of 50 SD rats weighing 100-120g with equal sex distribution were randomly divided into 5 groups. The rats were treated p.o. with different doses of AHT-323, tragacanth, or aspirin once daily for 3 days. One hour later, rats were given subcutaneously injections with 0.05 ml of carrageenin (1%) in the right paw of each rat. The degree of paw swelling was measured using the drainage method before and 1, 3, 4, 5, and 6 h after injection of the carrageenin.

peritoneal macrophage = experiment: CRBC phagocytosis of peritoneal macrophage of mice; assay type: in vivo; details: 0.005 g/kg p.o. once daily 7 days
Protocol: Totals of 50 NIH mice weighing 18-22 g with equal sex distribution were randomly divided into 5 groups. The mice were treated p.o. with different doses of AHT-323 or other positive control drug once daily for 7 days. 1 h after the last dose, mice were injected i.p. with 0.2 ml […] of chick (10%). 4 h later, mice were sacrificed and the peritoneal fluid was obtained. Under microscope, the amount of macrophage that phagocytosed CRBC and the amount of CRBC phagocytosed by each macrophage were counted.

WBC of pleura = experiment: Migration of inflammatory cells of pleura (Fucus siliquosus glue); assay type: in vivo, NIH mice; details: 0.05 g/kg
Protocol: A total of 50 NIH mice were randomly divided into five groups. 0.5% Evans blue saline was injected into caudal vein at 0.1 ml/10 g body weight. Then mice were lightly anesthetized with ether and injected with 0.03 ml of Fucus siliquosus glue into right thoracic cavity to induce inflammation. 4 h and 32 h after inflammation induction, the mice were sacrificed and 2 ml of thoracic cavity wash liquid was collected and used to count the WBC and measure the optical density (OD) at 600 nm. […] The regression equation on 4 h was y=44.13-2.01x, r=0.9625.

[2] = system: ear swelling induced by croton oil; experiment: Ear swelling induced by croton oil; assay type: in vivo, NIH mice; details: 0.003 g/kg p.o. once daily 3 days
Protocol: A total of 60 NIH mice weighing 18-22 g with equal sex distribution were randomly divided into 6 groups. The mice were treated p.o. with different doses of AHT-323, tragacanth, or DXM once daily for 3 days. One hour after the last administration, 0.02 ml croton oil (2%) was pasted around the left auricle. Four hours later, mice were sacrificed by dislocating cervical vertebrae. The right and left ears were cut off and weighed to get the differences in the degree of ear swelling.

cotton granuloma = experiment: Cotton granuloma and organ weights; assay type: in vivo, SD rats; details: 0.05 g/kg p.o. once daily 7 days
Protocol: 150 SD rats weighing 150-180 g with equal sex distribution were randomly divided into 15 groups. After light anesthesia with ether, an aseptic cotton ball (10 mg) was implanted into each armpit. On that day, rats were administered p.o. with different doses of AHT-323 or DXM once daily for 7 days. Twenty four hours after the last drug administration, the rats were sacrificed and the cotton balled granuloma were removed. The wet and dry weight of the granuloma, and other organs were obtained.

[3] = system: adjuvant arthritis (AA) rats; experiment: Prophylactic effect on rat adjuvant arthritis (paw and ankle swelling); assay type: in vivo, SD rats; details: 0.01 g/kg p.o.
Protocol: The study was conducted in adjuvant arthritis (AA) rats, an experimental model for human rheumatoid arthritis.
(§1) In the study, 60 male SD rats weighing 180-220 g were used and randomly divided into 5 groups, including three test groups, one negative and one positive control groups. The rats were given p.o. three different dosages of AHT-323, tragacanth, or prednisone, respectively, once daily for 4 consecutive weeks. 0.1 ml of Freund's Complete Adjuvant (FCA) was also injected intradermally into the plantar of left hind paw of rats […]. Each day, the maximal circumference of both left and right paw and ankle joint were measured, and the swelling degrees (mm) were calculated to determine the AHT-323 on both primary and secondary injury. The primary injury occurs at the homolateral joints of the adjuvant injection and is resulted from direct, non-specific inflammatory reaction of the body to adjuvant. Whereas the secondary injury occurs at the contralateral joints of the adjuvant injection in about two weeks after adjuvant injection and is related to auto-immune responses induced by adjuvant injection. The pathological changes of human rheumatoid arthritis is similar to that of the secondary injury in AA rats.

[4] = system: adjuvant arthritis (AA) rats; experiment: Therapeutic effect on adjuvant arthritis rats (swelling); assay type: in vivo, SD rats; details: 0.01 g/kg
Protocol: as §1
Totals of 50 male SD rats were divided into 5 groups with the same treatment as experiments described in section 3.3.1 except that the AHT-323 was given p.o. from d13˜d28 once daily for 2 weeks, (from the thirteenth day after injection of Freund's Complete Adjuvant).

T cells of AA mice = T cells of AA mice (esterase stain, flow cytometry); assay type: in vivo, NIH mice; details: 0.012 g/kg
Protocol: A total of 60 NIH mice weighing 20±2 g were randomly divided into 6 groups, among which four groups were injected intradermially with 0.05 ml FCA to induce AA model mice. The negative control group was injected intradermially with 0.05ml saline. The rats in AHT-323 test groups were administrated orally with AHT-323 once daily for consecutive five days. Five days later, peripheral blood was drawn from mice in all groups and stained with esterase. The percent of T cells (positive esterase stained cells) was calculated.
The above mice were anesthetized and spleens were removed and made into splenocytes suspension. CD4^+ T cells and CD8^+ T cells were assayed with flow cytometry and CD4^+/CD8^+ was calculated.

## CC(=O)Oc1ccccc1C(=O)O [Aspirin, aspirin]
[1]; 1 h
  Paw swelling rate (%): 6.3 ± 4.1 %
[1]; 3 h
  Paw swelling rate (%): 11.1 ± 6.3 %
[1]; 4 h
  Paw swelling rate (%): 17.9 ± 7.6 %
[1]; 5 h
  Paw swelling rate (%): 18.1 ± 7.0 %
[1]; 6 h
  Paw swelling rate (%): 20.6 ± 6.0 %

## C[C@@H]1C[C@H]2[C@@H]3CCC4=CC(=O)C=C[C@]4(C)[C@@]3(F)[C@@H](O)C[C@]2(C)[C@@]1(O)C(=O)CO [DXM, dexamethasone]
Peritoneal macrophage
  Phagocytic index: 1.10 ± 0.18
  Phagocytic percent (%): 8.33 ± 10.13 %
WBC of pleura; 4 h after inflammation induction
  WBC count: 12.7 ± 10.2
WBC of pleura; 32 h
  WBC count: 4.4 ± 4.0
[2]
  Swelling degree: 14.13 ± 5.75 mg
[2]; Mus musculus, po, 72 h, read-out: Inhibition rate
  inhibition at 3 mg/kg: 68.2%
Cotton granuloma
  Granuloma Wt. Dry Wt.: 77 ± 17 mg/100 g
  Granuloma Wt. Wet Wt.: 346 ± 92 mg/100 g
  Weight of organs: Adrenal: 17 ± 5 mg/100 g
  Weight of organs: Spleen: 412 ± 173 mg/100 g
  Weight of organs: Thymus: 38 ± 13 mg/100 g
  Weight of organs: uterus: 126 ± 33 mg/100 g

## C[C@]12C=CC(=O)C=C1CC[C@@H]1[C@@H]2C(=O)C[C@@]2(C)[C@H]1CC[C@]2(O)C(=O)CO [Prednisone, prednisone]
[3]; primary injury, 2nd block col 1 (day not given)
  Swelling degree: 1.18 ± 0.76 cm
[3]; primary injury, 2nd block col 2 (day not given)
  Swelling degree: 1.03 ± 0.67 cm
[3]; primary injury, 2nd block col 3 (day not given)
  Swelling degree: 1.05 ± 0.69 cm
[3]; primary injury, 2nd block col 4 (day not given)
  Swelling degree: 0.90 ± 0.64 cm
[3]; primary injury, 2nd block col 5 (day not given)
  Swelling degree: 0.86 ± 0.65 cm
[3]; primary injury, 2nd block col 6 (day not given)
  Swelling degree: 0.85 ± 0.59 cm
[3]; primary injury, d1
  Swelling degree: 0.64 ± 0.14 cm
[3]; primary injury, d2
  Swelling degree: 0.64 ± 0.16 cm
[3]; primary injury, d3
  Swelling degree: 0.50 ± 0.26 cm
[3]; primary injury, d9
  Swelling degree: 0.46 ± 0.25 cm
[3]; primary injury, d12
  Swelling degree: 0.72 ± 0.46 cm
[3]; primary injury, d14
  Swelling degree: 0.87 ± 0.46 cm
[3]; primary injury, d16
  Swelling degree: 1.28 ± 0.69 cm
[3]; secondary injury, 2nd block col 1 (day not given)
  Swelling degree: 0.78 ± 0.70 cm
[3]; secondary injury, 2nd block col 2 (day not given)
  Swelling degree: 0.72 ± 0.71 cm
[3]; secondary injury, 2nd block col 3 (day not given)
  Swelling degree: 0.67 ± 0.64 cm
[3]; secondary injury, 2nd block col 4 (day not given)
  Swelling degree: 0.62 ± 0.61 cm
[3]; secondary injury, 2nd block col 5 (day not given)
  Swelling degree: 0.65 ± 0.64 cm
[3]; secondary injury, D9
  Swelling degree: 0.038 ± 0.048 cm
[3]; secondary injury, d2
  Swelling degree: 0.016 ± 0.039 cm
[3]; secondary injury, d12
  Swelling degree: 0.14 ± 0.14 cm
[3]; secondary injury, d14
  Swelling degree: 0.38 ± 0.39 cm
[3]; secondary injury, d16
  Swelling degree: 0.92 ± 0.62 cm
[3]; secondary injury, d18
  Swelling degree: 0.78 ± 0.71 cm
[4]; primary injury, therapeutic (p.o. d13˜d28), D1
  Swelling degree: 1.78 ± 0.51 cm
[4]; primary injury, therapeutic (p.o. d13˜d28), d2
  Swelling degree: 1.70 ± 0.51 cm
[4]; primary injury, therapeutic (p.o. d13˜d28), d4
  Swelling degree: 1.63 ± 0.50 cm
[4]; primary injury, therapeutic (p.o. d13˜d28), d6
  Swelling degree: 1.58 ± 0.50 cm
[4]; primary injury, therapeutic, 2nd block col 1 (day not given)
  Swelling degree: 1.27 ± 0.46 cm
[4]; primary injury, therapeutic, 2nd block col 2 (day not given)
  Swelling degree: 1.09 ± 0.54 cm
[4]; primary injury, therapeutic, 2nd block col 3 (day not given)
  Swelling degree: 0.94 ± 0.50 cm
[4]; primary injury, therapeutic, 2nd block col 4 (day not given)
  Swelling degree: 0.94 ± 0.42 cm
[4]; secondary injury, therapeutic (p.o. d13˜d28), D1
  Swelling degree: 1.08 ± 00.41 cm
[4]; secondary injury, therapeutic (p.o. d13˜d28), d2
  Swelling degree: 1.18 ± 00.44 cm
[4]; secondary injury, therapeutic (p.o. d13˜d28), d4
  Swelling degree: 1.23 ± 00.42 cm
[4]; secondary injury, therapeutic (p.o. d13˜d28), d6
  Swelling degree: 1.19 ± 00.38 cm
[4]; secondary injury, therapeutic, 2nd block col 1 (day not given)
  Swelling degree: 0.88 ± 00.47 cm
[4]; secondary injury, therapeutic, 2nd block col 2 (day not given)
  Swelling degree: 0.95 ± 00.43 cm
[4]; secondary injury, therapeutic, 2nd block col 3 (day not given)
  Swelling degree: 0.82 ± 00.48 cm
[4]; secondary injury, therapeutic, 2nd block col 4 (day not given)
  Swelling degree: 0.75 ± 00.37 cm

## CC(=O)OC[C@]12[C@H](OC(C)=O)[C@H](OC(C)=O)[C@@H]3[C@@H](OC(C)=O)[C@@]14O[C@@]3(C)COC(=O)c1cccnc1CCC(C)(O)C(=O)O[C@@H]([C@H](OC(=O)c1ccccc1)[C@@H]2OC(C)=O)[C@]4(C)O (stereo partly shown) [Wilfordine]
T cells of AA mice
  CD4^+/CD8^+: 1.70 ± 0.03
T cells of AA mice; peripheral blood
  ANAE^+ (%): 48.88 ± 2.89%
T cells of AA mice; splenocytes
  CD4^+ (%): 27.88 ± 1.99 %
  CD8^+ (%): 16.33 ± 1.31 %
